For orientation: half-life means the time in which the quantity being followed falls by half. Low readings indicate rapid decline, high ones slow decline. What is called EC50 is the concentration needed to bring the measured effect to its halfway point. Low values mean greater potency, high ones weaker potency.

Molecules are shown by their SMILES.

The nature of series [1]: SIF assay (stability in simulated intestinal fluid). It is filed as in vitro ADME. As to conditions: simulated intestinal fluid (SIF) with pancreatin; simulated intestinal fluid, pH 6.8, pancreatin, 37° C., 20 μM. The protocol:
SIF was prepared by adding 6.8 g of monobasic potassium phosphate and 10.0 g of pancreatin to 1.0 L of water. After dissolution, the pH was adjusted to 6.8 using NaOH. DMSO stocks (2 mM) were prepared for each of the opioid agonist peptides. Aliquots of the DMSO solutions were dosed into […], each containing 0.5 mL of SIF, which was pre-warmed to 37° C. The final opioid agonist peptide concentration was 20 μM. The vials were kept in a benchtop Thermomixer® for the duration of the experiment. At each timepoint (0, 5, 10, 20, 40, 60, or 360 minutes or 24 hours), 1.0 mL of acetonitrile containing 1% formic acid was added to one vial to terminate the reaction. Samples were stored at 4° C. until the end of the experiment. After the final timepoint was sampled, the tubes were mixed and then centrifuged at 3,000 rpm for 10 minutes. Aliquots of the supernatant were removed, diluted 1:1 into distilled water containing an internal standard, and analyzed by LCMS/MS. The percent of the opioid agonist peptide remaining at each timepoint was calculated based on the peak area response ratio of opioid agonist peptide to the internal standard. Time 0 was set to 100%, and all later timepoints were calculated relative to time 0. Half-lives were calculated by fitting to a first-order exponential decay equation using Graph pad.

Series [2] can be described thus: Plasma assay (stability in mouse plasma). It is filed as in vitro ADME. As to conditions: 37° C. As for the experimental part: Peptides of interest (20 uM) were incubated with pre-warmed mouse plasma (BioreclamationIVT) at 37° C. Aliquots were taken at various time points up to 24 hours (e.g. 0, 0.25, 1, 3, 6 and 24 hr), and immediately quenched with 4 volumes of organic solvent (acetonitrile/methanol (1:1) and 0.1% formic acid, containing 1 μM internal standard). Quenched samples were stored at 4° C. until the end of the experiment and centrifuged at 17,000 g for 15 minutes. The supernatant was diluted 1:1 with deionized water and analyzed using LC-MS. Percentage remaining at each time point was calculated based on the peak area ratio (analyte over internal standard) relative to the initial level at time zero. Half-lives were calculated by fitting to a first-order exponential decay equation using Graph Pad Prism.

Series [3] in a line: SGF assay (stability in simulated gastric fluid). It is filed as in vitro ADME. As to conditions: pig, simulated gastric fluid (SGF) with porcine pepsin, pH 2, pepsin, 37° C. The protocol: SGF was prepared by adding 20 mg NaCl, 32 mg porcine pepsin (MP Biochemicals, catalog 02102599), and 70 μl HCl to 10 ml water (final pH=2). Aliquots of SGF (0.5 ml each) were pre-warmed at 37° C. To start the reaction, 1 μl of opioid agonist peptide stock solution (10 mM in DMSO) was added to 0.5 ml SGF and thoroughly mixed such that the final peptide concentration was 20 μM. The reactions were incubated at 37° C. with gentle shaking.
At each timepoint (0, 15, 30, 60 min) 50 µl aliquots were removed and added to 200 ul of acetonitrile containing 0.1% formic acid to quench the reaction. Samples were stored at 4° C. until the end of the experiment and centrifuged at 10,000 rpm for 5 minutes. Aliquots of the supernatant were removed, diluted 1:1 into distilled water containing internal standard, and analyzed by LCMS/MS. The percent of the opioid agonist peptide remaining at each timepoint was calculated based on the peak area response ratio of the opioid agonist peptide to the internal standard. Time 0 was set to 100%, and all later timepoints were calculated relative to time 0. Half-lives were calculated by fitting to a first-order exponential decay equation using GraphPad.

The target of series [4] is T1, μ-opioid receptor (MOR) (Homo sapiens, UniProt P35372).
T1 construct: host or cells: cAMP Hunter CHO-K1 OPRM1 Gαi cell line
The series is described as follows: MOR agonist cAMP assay (HitHunter cAMP, forskolin-stimulated). It is filed as cell-based. The procedure, abridged: (§1)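 CHO-K1 Gαi cells expressing OPRM1 or OPRD1 were exposed 30 min at 37° C to 11-point threefold agonist dilutions, in duplicate, with 20 uM forskolin final. cAMP quantified by EFC chemiluminescent competitive immunoassay against cAMP standards. EC50 by four-parameter Hill nonlinear regression.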

Series [5] has as its target T2, δ-opioid receptor (DOR) (Homo sapiens, UniProt P41143).
T2 construct: host or cells: cAMP Hunter CHO-K1 OPRD1 Gαi cell line
The series is described as follows: DOR agonist cAMP assay (HitHunter cAMP, forskolin-stimulated). It is filed as cell-based. The procedure, abridged: as §1

T2 sequence (P41143 whole entry): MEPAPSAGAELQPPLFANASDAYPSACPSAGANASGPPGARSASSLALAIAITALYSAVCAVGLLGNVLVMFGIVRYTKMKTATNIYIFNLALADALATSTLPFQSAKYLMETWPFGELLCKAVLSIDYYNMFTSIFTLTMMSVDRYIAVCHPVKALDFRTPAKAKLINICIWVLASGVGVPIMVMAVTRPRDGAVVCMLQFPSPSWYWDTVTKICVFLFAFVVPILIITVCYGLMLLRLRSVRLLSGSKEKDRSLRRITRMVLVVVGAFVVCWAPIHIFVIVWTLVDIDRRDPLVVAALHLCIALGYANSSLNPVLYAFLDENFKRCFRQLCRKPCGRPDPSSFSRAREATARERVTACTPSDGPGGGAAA
T1 sequence (P35372 whole entry): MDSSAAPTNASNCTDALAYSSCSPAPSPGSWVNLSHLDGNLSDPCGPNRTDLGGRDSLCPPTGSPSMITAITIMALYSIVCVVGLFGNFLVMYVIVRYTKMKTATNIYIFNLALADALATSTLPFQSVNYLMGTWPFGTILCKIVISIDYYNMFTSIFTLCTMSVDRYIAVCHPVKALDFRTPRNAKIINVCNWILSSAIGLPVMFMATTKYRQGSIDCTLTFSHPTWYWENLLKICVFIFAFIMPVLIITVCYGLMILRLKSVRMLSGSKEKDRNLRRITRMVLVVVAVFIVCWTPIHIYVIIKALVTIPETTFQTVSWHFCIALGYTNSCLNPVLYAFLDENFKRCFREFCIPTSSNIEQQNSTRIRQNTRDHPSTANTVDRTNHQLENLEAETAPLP

`CCCC[C@H](NC(=O)[C@H](Cc1ccccc1)NC(=O)CNC(=O)[C@@H](C)NC(=O)[C@@H](N)Cc1c(C)cc(O)cc1C)C(N)=O` [compound 37]: the values for the half-life at 20 μM in series [1] and in series [3] were at most 0.167 h and 0.167 to 6 h, respectively. Also, the half-life at 20 uM in series [2] fell in the range of 6 to 24 h.

For `Cc1cc(O)cc(C)c1C[C@H](N)C(=O)N[C@H](CC(=O)O)C(=O)NCC(=O)N[C@H](CC(=O)N(C)CC(N)=O)Cc1ccccc1` [compound 83], the half-life at 20 μM in series [1] and in series [3] was over 24 h in each case. The EC50 in series [4] and in series [5] was under 1 nM each time. In series [2], the half-life at 20 uM was over 24 h.

Turning to `Cc1cc(O)cc(C)c1C[C@H](N)C(=O)N[C@H](C)C(=O)NCC(=O)N[C@H](CC(=O)N(C)CC(N)=O)Cc1ccccc1` [compound 43], the half-life at 20 μM is 6 to 24 h in series [1] and over 24 h in series [3]. The compound also returned a half-life at 20 uM in series [2] of 6 to 24 h. In series [5], the EC50 was under 1 nM.

The record behind these values is patent US10278957B2, “Opioid agonist peptides and uses thereof” (Protagonist Therapeutics, Inc., priority 2017, dated 2019).
